Measured values from US20110182888A1, “Administration of an Inhibitor of HDAC, an Inhibitor of HER-2, and a Selective Estrogen Receptor Modulator” (priority 2008, published 2011).

Assays:
[1] = tested on: erbB2-overexpressing breast cancer cells; assay: cell proliferation (MTS) assays, erbB2-overexpressing vs basal breast cancer cells; format: cell-based, human; details: MTS assay; erbB2-overexpressing breast cancer cells compared to basal cells
Description: (§1) SNDX-275 had little effect on apoptosis induction and cell cycle progression in basal breast cancer MDA-MB-468, MDA-MB-231, and BT20 cells. […] Moreover, elevated expression of erbB3 via transfection with erbB3-containing expression vector abrogated SNDX-275-induced inactivation of the downstream signaling, apoptosis, and cell cycle arrest, whereas knockdown of erbB3 and/or erbB2 expression with specific shRNAs enhanced the efficacy of SNDX-275-induced inactivation of the downstream signaling, apoptosis, and cell cycle arrest in SKBR3 and BT474 cells.

[2] = tested on: erbB2-overexpressing SKBR3, BT474, and MDA-MB-453 cells; assay: Apoptotic-ELISA, western blots on PARP cleavage and caspase-3, -8, -9 activation, flow cytometry in erbB2-overexpressing cells; format: cell-based, human; details: SNDX-275 5 μM; SKBR3, BT474, MDA-MB-453 cells
Description: as §1

[3] = tested on: basal breast cancer MDA-MB-468, MDA-MB-231, and BT20 cells; assay: apoptosis induction and cell cycle progression in basal breast cancer cells; format: cell-based, human; details: MDA-MB-468, MDA-MB-231, BT20 cells
Description: as §1

[4] = tested on: P-erbB3, P-erbB2, P-MAPK, P-Akt, erbB3 and erbB2 in SKBR3, BT474 and MDA-MB-453 cells; assay: erbB receptor and downstream signaling levels upon SNDX-275 treatment; format: cell-based, human
Description: as §1

SKBR3 and BT474 cells = assay: erbB3 overexpression or erbB3/erbB2 shRNA knockdown and SNDX-275 response; format: cell-based, human
Description: as §1

[5] = tested on: human breast cancer cells; details: through induction of TGFβ type II receptor or TRAIL expression, or degradation of DNMT1; cited from earlier work

In the case of `Nc1ccccc1NC(=O)c1ccc(CNC(=O)OCc2cccnc2)cc1` [SNDX-275, N-(2-aminophenyl)-4-(N-(pyridin-3-ylmethoxycarbonyl)aminomethyl)benzamide], the growth inhibition [1] is reported as “much stronger growth inhibition”, the “apoptosis and cell cycle arrest” value [2] is reported as “induced apoptosis and cell cycle G1 arrest” and the “apoptosis induction and cell cycle progression” value [3] is reported as “little effect”. For the same compound, the erbB2 receptor [4] was “lesser reduction”, the erbB3 protein [4] was “rapid decrease” and the “levels of P-erbB3, P-erbB2, P-MAPK, and P-Akt” value [4] was “significantly decreased”. The “efficacy of SNDX-275-induced inactivation of downstream signaling, apoptosis, and cell cycle arrest with erbB3 and/or erbB2 knockdown” value (SKBR3 and BT474 cells; specific shRNAs, SKBR3 and BT474 cells) was “enhanced”, the “SNDX-275-induced inactivation of downstream signaling, apoptosis, and cell cycle arrest with elevated erbB3 expression” value (SKBR3 and BT474 cells; transfection with erbB3-containing expression vector) was “abrogated” and the proliferation and apoptosis [5] was “inhibit proliferation and induce apoptosis”.
